Data as given in patent US20230066011A1, “PYRROLOPYRIMIDINE DERIVATIVE, AND PHARMACEUTICAL COMPOSITION FOR PREVENTING OR TREATING PROTEIN KINASE-RELATED DISEASE COMPRISING SAME AS ACTIVE INGREDIENT” (VORONOI CO., LTD., priority 2019, published 2023).

Tests used:
human GST-DYRK1A = biological target: T1, human GST-DYRK1A (Homo sapiens, UniProt Q13627); assay: GST-DYRK1A enzyme inhibition, ADP-Glo kinase assay; assay type: biochemical; conditions: ATP 10 μM, GST-DYRK1A full length, read-out: DYRK1 IC50
T1 construct: purified human GST-DYRK1A (full length, Thermo Scientifics) enzyme; purchased Thermo Scientifics
In short: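 Full-length human GST-DYRK1A (10 ng) with 10 μM ATP and specific substrate in 40 mM Tris-HCl pH 7.4, 20 mM MgCl2, 0.5 mg/mL BSA, 50 μM DTT, 1 h at 25 °C. ADP formation read by ADP-Glo luminescence relative to solvent control; IC50 from three data sets.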

human GST-CLK1 = biological target: T2, human GST-CLK1 (Homo sapiens, UniProt P49759); assay: GST-CLK1 enzyme inhibition, ADP-Glo kinase assay; assay type: biochemical; conditions: ATP 10 μM, GST-CLK1 129-end
T2 construct: purified human GST-CLK1 (129-end, SignalChem) enzyme; purchased SignalChem
In short: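 Human GST-CLK1 (129-end, 3 ng) reacted with substrate and 10 μM ATP for 1 h at 25° C in 40 mM Tris-HCl pH 7.4, 20 mM MgCl2, 0.5 mg/mL BSA, 50 μM DTT. ADP-Glo luminescence was normalised to solvent control; IC50 (nM) from 3 data sets.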

MDA-MB-231 cell line = assay: Inhibition of proliferation of MDA-MB-231 cancer cells (Cell Titer-Glo); assay type: cell-based; conditions: Homo sapiens, 72 hours
In short: (§1)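 Cells were grown in DMEM or RPMI, seeded at 2,000 cells/well and exposed to 11 threefold dilutions of compound (final 10 to 0.000169 μM) for 72 hours. Viability was read by Cell Titer-Glo luminescence after 10 min at room temperature, and GI50 was calculated from the luminescence data.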

SHP-77 = assay: Inhibition of proliferation of SHP-77 cancer cells (Cell Titer-Glo); assay type: cell-based; conditions: Homo sapiens, SHP77, 72 hours
Description: To evaluate an inhibitory effect on the proliferation of cancer cells, each of an MDA-MB-231 cell line (Korean Cell Line Bank #30026) and an MDA-MB-468 cell line as triple-negative breast cancer cell lines, and SHP-77 (ATCC #CRL-2195) as a small-cell lung cancer cell line was cultured in DMEM (HyClone #SH30243) or an RPMI medium (HyClone #SH3027.01) to analyze a cell growth rate. More specifically, a cell line was plated on a 96-well flat bottom plate (Corning #3903) at a density of 2,000 cells/100 μL per well, and then treated with 11 concentrations of the Example compound, a solution of which was diluted 3-fold so that a final concentration of the compound was 10.000000, 3.333333, 1.111111, 0.370370, 0.123457, 0.041152, 0.013717, 0.004572, 0.001524, 0.000508, and 0.000169 μM. After 72 hours, each of the culture media was treated with 100 μL of Cell Titer-Glo (Promega G7573), and then cultured at room temperature for 10 minutes. Then, a degree of luminescence was measured using a microplate reader. A GI50 value was calculated from the measured degree of luminescence using Prism (Version 8.2 GraphPad) software.

LRRK2 = LRRK2 (Homo sapiens, UniProt Q5S007); assay: LRRK2 enzyme inhibition, ADP-Glo kinase assay; assay type: biochemical; design: purchased Invitrogen PR8604B; conditions: ATP 10 μM
In short: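 Purified human LRRK2 (25 ng) with 10 μM ATP and 0.2 μg substrate in 40 mM Tris-HCl pH 7.4, 20 mM MgCl2, 0.5 mg/mL BSA, 50 μM DTT, 2 h at 25° C. ADP-Glo luminescence; 12-point compound series from 50 μM final; IC50 relative to solvent control.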

LRRK2 (G2019S) = LRRK2 (G2019S) (Homo sapiens, UniProt Q5S007, G2019S); assay: LRRK2 G2019S enzyme inhibition, ADP-Glo kinase assay; assay type: biochemical; design: purchased SignalChem L10-12GG; conditions: ATP 25 μM
In short: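 Purified human LRRK2 G2019S (16 ng) with 25 μM ATP and 0.2 μg substrate, 2 h at 25° C. in Tris-HCl pH 7.4, MgCl2, BSA, DTT buffer; compounds at 12 final concentrations, 50 μM down to 0.000001024 μM. ADP-Glo luminescence versus solvent control gave IC50.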

MDA-MB-468 cell line = assay: Inhibition of proliferation of MDA-MB-468 cancer cells (Cell Titer-Glo); assay type: cell-based; conditions: Homo sapiens, MDA-MB-468, 72 hours
In short: as §1

T2 sequence (P49759 129-484 limits assumed): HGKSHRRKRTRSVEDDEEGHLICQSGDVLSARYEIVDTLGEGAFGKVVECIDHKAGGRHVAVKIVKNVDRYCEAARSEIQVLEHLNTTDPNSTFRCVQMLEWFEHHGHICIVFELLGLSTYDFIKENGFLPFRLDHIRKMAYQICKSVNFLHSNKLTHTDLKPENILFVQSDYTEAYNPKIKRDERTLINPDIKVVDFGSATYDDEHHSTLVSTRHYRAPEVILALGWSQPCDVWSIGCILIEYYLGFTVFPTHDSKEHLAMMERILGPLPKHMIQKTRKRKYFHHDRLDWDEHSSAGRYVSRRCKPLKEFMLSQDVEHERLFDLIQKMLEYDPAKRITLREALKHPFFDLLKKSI
LRRK2 (G2019S), sequence (Q5S007 970-2527 G2019S limits assumed): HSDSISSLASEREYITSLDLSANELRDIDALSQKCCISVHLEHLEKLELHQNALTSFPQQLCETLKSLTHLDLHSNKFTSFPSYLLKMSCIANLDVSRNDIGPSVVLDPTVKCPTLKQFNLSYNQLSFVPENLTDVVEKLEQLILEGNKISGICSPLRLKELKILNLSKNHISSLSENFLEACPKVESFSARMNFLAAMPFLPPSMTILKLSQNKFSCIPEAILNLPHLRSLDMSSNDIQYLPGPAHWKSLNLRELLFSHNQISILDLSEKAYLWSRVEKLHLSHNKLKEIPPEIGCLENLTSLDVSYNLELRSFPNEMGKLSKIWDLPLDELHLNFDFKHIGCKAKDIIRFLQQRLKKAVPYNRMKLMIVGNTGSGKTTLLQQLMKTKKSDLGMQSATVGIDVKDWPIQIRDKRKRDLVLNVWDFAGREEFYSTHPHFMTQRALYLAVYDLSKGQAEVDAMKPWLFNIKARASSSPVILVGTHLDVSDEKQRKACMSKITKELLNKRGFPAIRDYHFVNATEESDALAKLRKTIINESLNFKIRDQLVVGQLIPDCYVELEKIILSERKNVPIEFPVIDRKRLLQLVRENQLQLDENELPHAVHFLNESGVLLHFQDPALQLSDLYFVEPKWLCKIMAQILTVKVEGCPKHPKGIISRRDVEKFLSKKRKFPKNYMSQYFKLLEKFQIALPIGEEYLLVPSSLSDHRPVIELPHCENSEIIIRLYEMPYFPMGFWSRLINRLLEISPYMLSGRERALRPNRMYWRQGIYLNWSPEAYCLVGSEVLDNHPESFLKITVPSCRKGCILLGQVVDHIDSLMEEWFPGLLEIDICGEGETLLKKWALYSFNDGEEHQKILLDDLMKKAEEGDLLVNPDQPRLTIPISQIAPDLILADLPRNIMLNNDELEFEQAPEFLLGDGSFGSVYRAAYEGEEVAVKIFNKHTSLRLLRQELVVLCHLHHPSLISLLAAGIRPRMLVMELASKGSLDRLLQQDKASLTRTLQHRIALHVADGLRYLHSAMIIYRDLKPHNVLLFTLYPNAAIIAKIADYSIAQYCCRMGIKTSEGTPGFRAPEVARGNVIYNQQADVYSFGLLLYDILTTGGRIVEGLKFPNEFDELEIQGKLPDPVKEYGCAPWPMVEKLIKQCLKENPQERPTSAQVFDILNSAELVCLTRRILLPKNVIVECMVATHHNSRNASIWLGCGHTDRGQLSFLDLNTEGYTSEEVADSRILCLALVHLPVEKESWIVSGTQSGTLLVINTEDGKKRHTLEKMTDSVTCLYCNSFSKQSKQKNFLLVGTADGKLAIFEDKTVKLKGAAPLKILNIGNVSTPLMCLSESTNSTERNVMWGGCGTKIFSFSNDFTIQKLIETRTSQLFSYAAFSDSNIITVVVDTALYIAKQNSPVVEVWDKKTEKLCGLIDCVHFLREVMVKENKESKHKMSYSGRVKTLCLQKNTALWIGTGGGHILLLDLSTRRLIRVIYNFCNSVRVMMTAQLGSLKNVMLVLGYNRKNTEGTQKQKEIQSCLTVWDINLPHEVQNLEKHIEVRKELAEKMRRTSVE
LRRK2, sequence (Q5S007 970-2527 limits assumed): as the sequence (Q5S007 970-2527 G2019S limits assumed) above, with S1050G counted along it

| IC50 (human GST-DYRK1A) [nM] | IC50 (human GST-CLK1) [nM] | GI50 (MDA-MB-231 cell line) [nM] | GI50 (SHP-77) [nM] | IC50 (LRRK2) [nM] | IC50 (LRRK2 (G2019S)) [nM] | GI50 (MDA-MB-468 cell line) [nM] | SMILES |
| --- | --- | --- | --- | --- | --- | --- | --- |
| 301 to 1000 | 301 to 1000 | < 50 | < 50 | < 100 | 301 to 1000 | 101 to 300 | COc1cc(S(=O)(=O)N2CCOCC2)ccc1Nc1nc(NC2CCCCC2)c2c(C#N)c[nH]c2n1 [Example 73] |
| 301 to 1000 | 301 to 1000 | 51 to 100 | < 50 |  |  | 101 to 300 | COc1cc(S(=O)(=O)N2CCOCC2)ccc1Nc1nc(N[C@H]2CCOC2)c2c(C#N)c[nH]c2n1 [Example 75, (S)-2-((2-methoxy-4-(morpholinosulfonyl)phenyl)amino)-4-((tetrahydrofuran-3-yl)amino)-7H-pyrrolo[2,3-d]pyrimidine-5-carbonitrile] |
| 301 to 1000 | 301 to 1000 | < 50 | < 50 | < 100 | < 100 |  | COc1cc(S(=O)(=O)N2CCOCC2)ccc1Nc1nc(NCC2CC2)c2c(C#N)c[nH]c2n1 [Example 77, 4-((cyclopropylmethyl)amino)-2-((2-methoxy-4-(morpholinosulfonyl)phenyl)amino)-7H-pyrrolo[2,3-d]pyrimidine-5-carbonitrile] |
| 301 to 1000 | 101 to 300 | < 50 | 51 to 100 | < 100 | < 100 |  | COc1cc(S(=O)(=O)N2CCC(N3CCOCC3)CC2)ccc1Nc1nc(NC2CCC2)c2c(C#N)c[nH]c2n1 [Example 89, 4-(cyclobutylamino)-2-((2-methoxy-4-((4-morpholinopiperidin-1-yl)sulfonyl)phenyl)amino)-7H-pyrrolo[2,3-d]pyrimidine-5-carbonitrile] |
| 301 to 1000 | 301 to 1000 | < 50 | < 50 | < 100 | < 100 |  | CCCCNc1nc(Nc2ccc(S(=O)(=O)N3CCC(N4CCOCC4)CC3)cc2OC)nc2[nH]cc(C#N)c12 [Example 97, 4-(butylamino)-2-((2-methoxy-4-((4-morpholinopiperidin-1-yl)sulfonyl)phenyl)amino)-7H-pyrrolo[2,3-d]pyrimidine-5-carbonitrile] |
| 301 to 1000 | 301 to 1000 | 301 to 1000 | 51 to 100 | < 100 | 301 to 1000 |  | CNc1nc(Nc2ccc(S(=O)(=O)N3CCOCC3)cc2OC)nc2[nH]cc(C(F)(F)F)c12 [Example 160, N^2-(2-methoxy-4-(morpholinosulfonyl)phenyl)-N^4-methyl-5-(trifluoromethyl)-7H-pyrrolo[2,3-d]pyrimidine-2,4-diamine] |
| 301 to 1000 | 301 to 1000 | 301 to 1000 | 51 to 100 | < 100 | 301 to 1000 |  | COc1cc(S(=O)(=O)N2CCOCC2)ccc1Nc1nc(NC(C)C)c2c(C(F)(F)F)c[nH]c2n1 [Example 164, N^4-isopropyl-N^2-(2-methoxy-4-(morpholinosulfonyl)phenyl)-5-(trifluoromethyl)-7H-pyrrolo[2,3-d]pyrimidine-2,4-diamine] |
| 301 to 1000 | 301 to 1000 | < 50 | 51 to 100 | < 100 | 101 to 300 |  | COc1cc(S(=O)(=O)N2CCC(N3CCOCC3)CC2)ccc1Nc1nc(NC(C)C)c2c(C(F)(F)F)c[nH]c2n1 [Example 165, N^4-isopropyl-N^2-(2-methoxy-4-((4-morpholinopiperidin-1-yl)sulfonyl)phenyl)-5-(trifluoromethyl)-7H-pyrrolo[2,3-d]pyrimidine-2,4-diamine] |
| 101 to 300 | < 100 | 301 to 1000 | 101 to 300 | < 100 | < 100 |  | COCCNc1nc(Nc2ccc(S(=O)(=O)N3CCC(N4CCOCC4)CC3)cc2OC)nc2[nH]cc(C(F)(F)F)c12 [Example 170, N^2-(2-methoxy-4-((4-morpholinopiperidin-1-yl)sulfonyl)phenyl)-N^4-(2-methoxyethyl)-5-(trifluoromethyl)-7H-pyrrolo[2,3-d]pyrimidine-2,4-diamine] |
| 301 to 1000 | 301 to 1000 | 301 to 1000 | 101 to 300 | 301 to 1000 | 301 to 1000 |  | CC[C@@H](C)Nc1nc(Nc2ccc(S(=O)(=O)N3CCC(N4CCOCC4)CC3)cc2OC)nc2[nH]cc(C(F)(F)F)c12 [Example 172, (R)-N^4-(sec-butyl)-N^2-(2-methoxy-4-((4-morpholinopiperidin-1-yl)sulfonyl)phenyl)-5-(trifluoromethyl)-7H-pyrrolo[2,3-d]pyrimidine-2,4-diamine] |
| 301 to 1000 | 301 to 1000 | 301 to 1000 | 101 to 300 | 301 to 1000 | 301 to 1000 |  | COCC(C)(C)Nc1nc(Nc2ccc(S(=O)(=O)N3CCOCC3)cc2OC)nc2[nH]cc(C(F)(F)F)c12 [Example 175, N^4-(1-methoxy-2-methylpropan-2-yl)-N^2-(2-methoxy-4-(morpholinosulfonyl)phenyl)-5-(trifluoromethyl)-7H-pyrrolo[2,3-d]pyrimidine-2,4-diamine] |
| 301 to 1000 | 301 to 1000 | 301 to 1000 | 301 to 1000 | < 100 | 101 to 300 |  | COc1cc(S(=O)(=O)N2CCC(N3CCOCC3)CC2)ccc1Nc1nc(NC2CCC2)c2c(C(F)(F)F)c[nH]c2n1 [Example 183, N^4-cyclobutyl-N^2-(2-methoxy-4-((4-morpholinopiperidin-1-yl)sulfonyl)phenyl)-5-(trifluoromethyl)-7H-pyrrolo[2,3-d]pyrimidine-2,4-diamine] |
| 301 to 1000 | 301 to 1000 | 301 to 1000 | 101 to 300 | 101 to 300 | 301 to 1000 |  | CCNc1nc(Nc2ccc(S(=O)(=O)N3CCOCC3)cc2OC)nc2[nH]cc(C(F)(F)F)c12 [Example 191, N^4-ethyl-N^2-(2-methoxy-4-(morpholinosulfonyl)phenyl)-5-(trifluoromethyl)-7H-pyrrolo[2,3-d]pyrimidine-2,4-diamine] |
| 301 to 1000 | 301 to 1000 | 301 to 1000 | 301 to 1000 | < 100 | 101 to 300 |  | COc1cc(S(=O)(=O)N2CCC(N3CCOCC3)CC2)ccc1Nc1nc(NCC2CCC2)c2c(C(F)(F)F)c[nH]c2n1 [Example 197, N^4-(cyclobutylmethyl)-N^2-(2-methoxy-4-((4-morpholinopiperidin-1-yl)sulfonyl)phenyl)-5-(trifluoromethyl)-7H-pyrrolo[2,3-d]pyrimidine-2,4-diamine] |
| 301 to 1000 | 301 to 1000 | 301 to 1000 | 301 to 1000 | < 100 | 101 to 300 |  | CCCCNc1nc(Nc2ccc(S(=O)(=O)N3CCC(N4CCOCC4)CC3)cc2OC)nc2[nH]cc(C(F)(F)F)c12 [Example 202, N^4-butyl-N^2-(2-methoxy-4-((4-morpholinopiperidin-1-yl)sulfonyl)phenyl)-5-(trifluoromethyl)-7H-pyrrolo[2,3-d]pyrimidine-2,4-diamine] |
